How the values were obtained:
[1] = target: T1, P2X7 (Homo sapiens, UniProt Q99572); assay: Ca2+ flux (FLIPR) in 1321N1 cells expressing recombinant human P2X7 channel; format: cell-based; parameters: expressed in transfected cells; host or cells: 1321N1 cells; details: 250 μM BzATP
T1 sequence (Q99572 1-595): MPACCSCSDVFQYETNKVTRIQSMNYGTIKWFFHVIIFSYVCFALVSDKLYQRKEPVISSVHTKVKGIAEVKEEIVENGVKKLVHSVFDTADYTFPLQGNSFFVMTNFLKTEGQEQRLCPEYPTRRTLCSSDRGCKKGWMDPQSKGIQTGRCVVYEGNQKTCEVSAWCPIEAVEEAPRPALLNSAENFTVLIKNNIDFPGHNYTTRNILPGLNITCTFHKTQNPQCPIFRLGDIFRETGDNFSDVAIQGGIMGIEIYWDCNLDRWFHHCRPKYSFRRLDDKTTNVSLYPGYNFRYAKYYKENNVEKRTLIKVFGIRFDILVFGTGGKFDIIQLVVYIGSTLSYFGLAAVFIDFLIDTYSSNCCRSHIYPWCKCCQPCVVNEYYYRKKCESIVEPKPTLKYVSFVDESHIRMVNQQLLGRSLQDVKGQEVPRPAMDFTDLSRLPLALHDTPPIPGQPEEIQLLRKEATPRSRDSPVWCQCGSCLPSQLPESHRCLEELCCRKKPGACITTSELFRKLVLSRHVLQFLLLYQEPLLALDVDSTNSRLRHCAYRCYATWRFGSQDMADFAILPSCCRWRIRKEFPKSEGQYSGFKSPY
Protocol: P2X7 Antagonism in Recombinant Human P2X7 Cells or Recombinant Rat P2X7 Cells: (a) Ca^2+ Flux and (b) Radioligand Binding
(a) Ca^2+ flux: 1321N1 cells expressing the recombinant human or rat P2X7 channel was cultured in HyQ DME/(HyClone/Dulbecco's Modified Eagle Medium) high glucose supplemented with 10% Fetal Bovine Serum (FBS) and appropriate selection marker. Cells were seeded at a density of 25000 cells/well (96-well clear bottom black walled plates) in 100 μl volume/well. On the day of the experiment, cell plates were washed with assay buffer, containing (in mM): 130 NaCl, 2 KCl, 1 CaCl2), 1 MgCl2, 10 HEPES, 5 glucose; pH 7.40 and 300 mOs. After the wash, cells were loaded with the Calcium-4 dye (Molecular Device) and incubated in the dark for 60 minutes. Test compounds were prepared at 250× the test concentration in neat DMSO. Intermediate 96-well compound plates were prepared by transferring 1.2 μL of the compound into 300 μL of assay buffer. A further 3× dilution occurred when transferring 50 μL/well of the compound plate to 100 μL/well in the cell plate. Cells were incubated with test compounds and dye for 30 minutes. […] The fluorescence change was measured 180 seconds after adding the agonist.

[2] = target: T2, rat P2X7 (Rattus norvegicus, UniProt Q64663); assay: Ca2+ flux (FLIPR) in 1321N1 cells expressing recombinant rat P2X7 channel; details: FLIPR (rat) IC50 (μM), 250 μM BzATP
T2 sequence (Q64663 1-595): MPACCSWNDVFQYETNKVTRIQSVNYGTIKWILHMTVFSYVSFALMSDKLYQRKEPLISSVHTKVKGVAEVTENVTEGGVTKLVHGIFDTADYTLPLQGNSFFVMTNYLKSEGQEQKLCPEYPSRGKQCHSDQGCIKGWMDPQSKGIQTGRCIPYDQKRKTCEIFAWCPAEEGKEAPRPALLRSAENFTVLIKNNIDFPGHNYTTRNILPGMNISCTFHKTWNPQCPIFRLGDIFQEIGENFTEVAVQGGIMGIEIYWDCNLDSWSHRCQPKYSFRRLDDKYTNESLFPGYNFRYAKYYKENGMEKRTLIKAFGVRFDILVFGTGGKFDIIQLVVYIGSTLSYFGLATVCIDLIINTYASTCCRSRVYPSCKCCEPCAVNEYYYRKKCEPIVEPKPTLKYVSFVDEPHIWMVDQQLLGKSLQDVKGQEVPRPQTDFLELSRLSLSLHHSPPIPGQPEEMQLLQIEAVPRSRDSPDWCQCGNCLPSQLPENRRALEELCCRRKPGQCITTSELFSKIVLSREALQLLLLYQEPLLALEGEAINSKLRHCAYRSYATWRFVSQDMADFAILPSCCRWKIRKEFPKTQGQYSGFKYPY

[3] = Biodistribution studies of radiotracer in healthy female Wistar rats; format: in vivo; details: for % ID blood: blood mass assumed 7% of body mass; for SUV blood / % ID carcass / % ID cerebellum / SUV cerebellum / % ID cerebrum / SUV cortex / % ID heart / SUV hippocampus / % ID intestines / % ID kidneys / % ID liver / % ID lungs / SUV rest of cerebrum / % ID spleen + pancreas / % ID stomach / SUV striatum / % ID urine / SUV whole cerebrum: mean ± SD, n = 3; for % ID bone: calculated to estimated total bone tissue (% ID/g bone * body mass* 0.12)
Protocol: HPLC analysis was performed on a LaChrom Elite HPLC system (Hitachi, Armstadt, Germany) connected to a UV spectrometer set at 220 nm. For the analysis of radiolabeled compounds, the HPLC eluate, after passage through the UV detector, was led over a shielded 3-inch NaI(Tl) scintillation detector connected to a multichannel analyser (Gabi box, Raytest, Straubenhardt, Germany). The output signal was recorded and analysed using a GINA Star data acquisition system (Raytest, Straubenhardt, Germany). Radioactivity in samples of biodistribution studies, cell uptake experiments and radiometabolite analysis was quantified using an automated gamma counter equipped with a 3-inch NaI(Tl) well crystal coupled to a multichannel analyser (Wallac 2480 Wizard, Wallac, Turku, Finland). Results were corrected for background radiation, physical decay and counter dead time.
Animals were housed in individually ventilated cages in a thermoregulated (˜22° C.), humidity-controlled facility under a 12 h/12 h light/dark cycle with access to food and water ad libitum. All animal experiments were conducted according to the Belgian code of practice for the care and use of animals, after approval from the KU Leuven University Ethics Committee for Animals.
The biodistribution studies were performed in healthy female Wistar rats (body weight, 185-220 g) at 2, 30 and 60 min after tracer injection (n=3/time point). […] The animals were sacrificed by decapitation at the indicated time points. Blood and major organs were collected in tared tubes and weighed. The radioactivity in the dissected organs and blood was counted using an automated gamma counter. For calculation of total blood radioactivity, blood mass was assumed to be 7% of the body mass.

Work on `C[C@H]1Cn2c(nnc2-c2ccc(F)c(F)c2)CN1C(=O)c1ccc(F)c(Cl)c1Cl` [Example 49, (S)-(2,3-dichloro-4-fluorophenyl)(3-(3,4-difluorophenyl)-6-methyl-5,6-dihydro-[1,2,4]triazolo[4,3-a]pyrazin-7(8H)-yl)methanone] yielded an IC50 [1] of 4.11 µM and an IC50 [2] of 2.73 µM.
`CC1c2nnc(-c3ccccn3)n2CCN1C(=O)c1cccc(Cl)c1Cl` (centres unmarked) [Example 1, (2,3-dichlorophenyl)(8-methyl-3-(pyridin-2-yl)-5,6-dihydro-[1,2,4]triazolo[4,3-a]pyrazin-7(8H)-yl)methanone] showed an IC50 [2] of 1.21 µM.
In the case of `C[C@H]1Cn2c(nnc2-c2ncc(F)cn2)CN1C(=O)c1cccc(C(F)(F)F)c1Cl` [Example 74], the IC50 [2] is reported as 0.0101 µM.
In the case of `C[C@H]1Cn2c(nnc2-c2cc([18F])ccn2)CN1C(=O)c1cccc(Cl)c1Cl` [[^18F]68, (S)-(2,3-dichlorophenyl)(3-(4-[^18F]fluoropyridin-2-yl)-6-methyl-5,6-dihydro-[1,2,4]triazolo[4,3-a]pyrazin-7(8H)-yl)methanone], the “% ID blood” value ([3]; 2 min after tracer injection) is reported as 6.8 ± 0.6 % ID, the SUV blood ([3]; 2 min after tracer injection) is reported as 0.97 ± 0.08 and the “% ID blood” value ([3]; 30 min after tracer injection) is reported as 4.3 ± 0.3 % ID. The SUV blood ([3]; 30 min after tracer injection) was 0.61 ± 0.04, the “% ID blood” value ([3]; 60 min after tracer injection) was 2.0 ± 0.5 % ID and the SUV blood ([3]; 60 min after tracer injection) was 0.29 ± 0.07. The “% ID bone” value ([3]; 2 min) was 8.8 ± 0.8 % ID, the “% ID bone” value ([3]; 30 min) was 44.5 ± 3.8 % ID and the “% ID bone” value ([3]; 60 min) was 64.5 ± 5.9 % ID. For the same molecule, the “% ID carcass” value ([3]; 2 min after tracer injection) was 40.8 ± 0.8 % ID, the “% ID carcass” value ([3]; 30 min after tracer injection) was 56.6 ± 2.8 % ID and the “% ID carcass” value ([3]; 60 min after tracer injection) was 60.4 ± 2.3 % ID. For the same molecule, the “% ID cerebellum” value ([3]; 2 min after tracer injection) was 0.1 ± 0.0 % ID, the SUV cerebellum ([3]; 2 min after tracer injection) was 1.21 ± 0.22 and the “% ID cerebellum” value ([3]; 30 min after tracer injection) was 0.0 ± 0.0 % ID. The SUV cerebellum ([3]; 30 min after tracer injection) was 0.33 ± 0.07, the “% ID cerebellum” value ([3]; 60 min after tracer injection) was 0.0 ± 0.0 % ID and the SUV cerebellum ([3]; 60 min after tracer injection) was 0.38 ± 0.08. For the same molecule, the “% ID cerebrum” value ([3]; 2 min after tracer injection) was 0.6 ± 0.0 % ID, the “% ID cerebrum” value ([3]; 30 min after tracer injection) was 0.1 ± 0.0 % ID and the “% ID cerebrum” value ([3]; 60 min after tracer injection) was 0.1 ± 0.0 % ID. The SUV cortex ([3]; 2 min after tracer injection) was 1.27 ± 0.13, the SUV cortex ([3]; 30 min after tracer injection) was 0.94 ± 0.29 and the SUV cortex ([3]; 60 min after tracer injection) was 0.69 ± 0.17. For the same molecule, the “% ID heart” value ([3]; 2 min after tracer injection) was 0.9 ± 0.1 % ID, the “% ID heart” value ([3]; 30 min after tracer injection) was 0.2 ± 0.0 % ID and the “% ID heart” value ([3]; 60 min after tracer injection) was 0.1 ± 0.0 % ID. The SUV hippocampus ([3]; 2 min after tracer injection) was 1.11 ± 0.10, the SUV hippocampus ([3]; 30 min after tracer injection) was 0.23 ± 0.04 and the SUV hippocampus ([3]; 60 min after tracer injection) was 0.19 ± 0.03. The “% ID intestines” value ([3]; 2 min after tracer injection) was 10.6 ± 2.1 % ID, the “% ID intestines” value ([3]; 30 min after tracer injection) was 20.9 ± 6.0 % ID and the “% ID intestines” value ([3]; 60 min after tracer injection) was 11.2 ± 0.6 % ID. The “% ID kidneys” value ([3]; 2 min after tracer injection) was 3.3 ± 0.5 % ID, the “% ID kidneys” value ([3]; 30 min after tracer injection) was 1.1 ± 0.2 % ID and the “% ID kidneys” value ([3]; 60 min after tracer injection) was 0.9 ± 0.1 % ID. The “% ID liver” value ([3]; 2 min after tracer injection) was 34.6 ± 2.4 % ID, the “% ID liver” value ([3]; 30 min after tracer injection) was 7.5 ± 0.6 % ID and the “% ID liver” value ([3]; 60 min after tracer injection) was 3.61 ± 0.3 % ID. For the same molecule, the “% ID lungs” value ([3]; 2 min after tracer injection) was 1.6 ± 0.1 % ID, the “% ID lungs” value ([3]; 30 min after tracer injection) was 0.7 ± 0.1 % ID and the “% ID lungs” value ([3]; 60 min after tracer injection) was 0.6 ± 0.2 % ID. For the same molecule, the “SUV rest of cerebrum” value ([3]; 2 min after tracer injection) was 1.20 ± 0.11, the “SUV rest of cerebrum” value ([3]; 30 min after tracer injection) was 0.31 ± 0.06 and the “SUV rest of cerebrum” value ([3]; 60 min after tracer injection) was 0.25 ± 0.04. The “% ID spleen + pancreas” value ([3]; 2 min after tracer injection) was 1.3 ± 0.2 % ID, the “% ID spleen + pancreas” value ([3]; 30 min after tracer injection) was 0.3 ± 0.1 % ID and the “% ID spleen + pancreas” value ([3]; 60 min after tracer injection) was 0.2 ± 0.0 % ID. The “% ID stomach” value ([3]; 2 min after tracer injection) was 1.5 ± 0.5 % ID, the “% ID stomach” value ([3]; 30 min after tracer injection) was 1.6 ± 0.9 % ID and the “% ID stomach” value ([3]; 60 min after tracer injection) was 10.7 ± 3.3 % ID. It also gave an SUV striatum ([3]; 2 min after tracer injection) of 1.19 ± 0.13, an SUV striatum ([3]; 30 min after tracer injection) of 0.24 ± 0.05 and an SUV striatum ([3]; 60 min after tracer injection) of 0.19 ± 0.03. For the same molecule, the “% ID urine” value ([3]; 2 min after tracer injection) was 0.1 ± 0.0 % ID, the “% ID urine” value ([3]; 30 min after tracer injection) was 8.4 ± 1.8 % ID and the “% ID urine” value ([3]; 60 min after tracer injection) was 8.4 ± 1.8 % ID. For the same molecule, the SUV whole cerebrum ([3]; 2 min after tracer injection) was 1.20 ± 0.11, the SUV whole cerebrum ([3]; 30 min after tracer injection) was 0.31 ± 0.06 and the SUV whole cerebrum ([3]; 60 min after tracer injection) was 0.25 ± 0.04.
Work on `C[C@H]1Cn2c(nnc2-c2ccc(F)cc2F)CN1C(=O)c1cccc(Cl)c1Cl` [Example 50, (S)-(2,3-dichlorophenyl)(3-(2,4-difluorophenyl)-6-methyl-5,6-dihydro-[1,2,4]triazolo[4,3-a]pyrazin-7(8H)-yl)methanone] yielded an IC50 [2] of 1.68 µM.

Source: US12338243B2, “P2X7 modulators” (JANSSEN PHARMACEUTICA NV, priority 2014, dated 2025)
